Experimental data from US8771953B2, “Evaluation of the potential risk of drug induced mood disturbance and suicide: use of a dedicated platform” (Biocortech, priority 2008, dated 2014).
Like-named read-outs stand apart in the source and are kept apart here. Marks after values point to notes of the source that are not given here.

What was measured:
5-HT2cR mRNA = assay: Editing profile of 5-HT2cR mRNA isoforms by CE-SSCP (nested PCR) in SH-SY5Y cells; enzyme activity indexes worked out from the profile; assay type: cell-based, human; conditions: for activation at 10 µM: Homo sapiens; for alteration of 5-HT2cR mRNA editing compared with that observed after INFα treatment (component analysis, FIG. 4): SH-SY5Y cells, 48 hours, 10 μM
ADAR1a mRNA = assay: Q-PCR of ADAR1a mRNA expression in SH-SY5Y cells; assay type: cell-based; conditions: Homo sapiens, 10 micromolar, 24 hours, read-out: QPCR: RNA expresion (% of variation) ADAR1a
Description: ADAR1a RNA Expression in SH-SY5Y cells (Q-PCR, Applied TaqMan probes ref: Hs 01020780_m1).
(§1) The SH-SY5Y Human neuroblastoma cell line was purchased from ECACC (EC94030304 from the European Collection of Cell Cultures (ECACC)). The cell line SH-SY5Y is a thrice-cloned neuroblastoma, originally from SK-N-SH and first reported in 1978. A neuroblast-like subclone of SK-N-SH, named SH-SY, was subcloned as SH-SY5, which was subcloned again as SH-SY5Y (Biedler J L et al. Cancer Res. 1978; 38:3751-7). Cells were cultured in high glucose D-MEM medium (Sigma, ref D6546) supplemented with 10% dialysed FCS (PAA, ref. A15-507, lot A50708-0050), 2 mM Glutamine (Sigma, G7513) and a 1× mix of Antibiotic-Antimycotic Stabilized (Sigma, ref. A5955) at 37° C. under a humidified atmosphere of 5% CO2. The day preceeding drug or hIFNα treatment, SH-SY5Y cells were plated in 6-well plates at a density of 10^6 cells/well. One 6-well plate was used per experimental condition (concentration or treatment duration). The day after plating, culture medium was removed and cells were incubated for 24 hours with a 10 μM solution of the compound to be tested molecules or a 1000 IU/ml solution of hIFNα (PBL biomedical laboratories). For hIFNα dose-response experiment cells were incubated with 1, 10, 100, and 1000 IU/ml of hIFNα solutions. For hIFNα time-course experiment cells were treated for 24, 48, or 72 hours with a 1000 IU/ml solution of hIFNα. After the different treatments, cells were directly lysed in RLT lysis buffer and total RNA purified according to manufacturer's protocol (Qiagen, RNeasy Plus mini kit, ref. 74134). Total RNA was then reverse transcribed with Thermoscript RT-PCR system Plus Taq (Invitrogen, 11146-032) and the resulting cDNA used for CE-SSCP and quantitative real-time PCR.
(§2) In order to quantify levels of 5-HT2CR, ADAR1 and ADAR2 mRNA expression in SH-SY5Y cells or in prefrontal cortex, total blood and skin of Balb/cJ mice, first-strand cDNA was synthesized by reverse transcription and subjected to TaqMan quantitative real-time PCR analysis (Applied Biosystems). All probes and primers used for the quantitative PCRs were from Applied Bio systems (Gene Expression Assays, Assay-On-Demand) (see Table 1, Applied Biosystems primers and probes references): […]
(§3) Human GAPDH (product no. 4326317E; Applied Biosystems) or mouse GAPDH (product no. 4352339E; Applied Biosystems) were included in each multiplex PCR as an internal control. Real-time PCR and subsequent analysis were performed with a 48-well block StepOne RT PCR system (Applied Biosystems). Quantification of target gene expression in all samples was normalized to GAPDH expression by the equation Ct (target)−Ct (GAPDH)=ΔCt, where Ct is the threshold cycle number. The mean ΔCt value of samples from untreated mice or cells was determined and used as a reference point for the samples corresponding to treated animals or cells. Differences between untreated and treated animals or cells, including individual variation were calculated by the equation (ΔCt (individual treated samples)−ΔCt (mean of untreated samples)=ΔΔCt). Changes in target gene expression (n-fold) in each sample were calculated by 2^−ΔΔCt, from which the means and standard deviations (SD) were derived.
(§4) The SH-SY5Y Human neuroblastoma cell line was purchased from ECACC. Cells were cultured in high glucose D-MEM medium (Sigma, ref. D6546) supplemented with 10% dialysed FCS (PAA, ref. A15-507, lot A50708-0050), 2 mM Glutamine (Sigma, ref. G7513) and a 1× mix of Antibiotic-Antimycotic Stabilized (Sigma, ref. A5955) at 37° C. under a humidified atmosphere of 5% CO2. The day preceeding hIFNα or drug treatment, SH-SY5Y cells were plated in 6-well plates (Corning, Multiwell Plate, 6 well, Corning CellBIND Surface, ref 3335) at a density of 5; 7 or 9·10^6 cells/well for a 72-, 48- or 24-hour treatment respectively. Six or eight wells of 6-well plates were used per experimental condition (control, concentration or treatment duration).

ADAR1b mRNA = assay: Q-PCR of ADAR1b mRNA expression in SH-SY5Y cells; assay type: cell-based; conditions: Homo sapiens, 10 micromolar, 24 hours, read-out: QPCR: RNA expresion (% of variation) ADAR1b
Method: as §1, §2, §3, §4

ADAR2 mRNA = assay: Q-PCR of ADAR2 mRNA expression in SH-SY5Y cells; assay type: cell-based; conditions: Homo sapiens, 10 micromolar, 24 hours, read-out: QPCR: RNA expresion (% of variation) ADAR2
Method: as §1, §2, §3, §4

[1] = SH-SY5Y, 10 micromolar, 24 hours, read-out: ENZYME ACTIVIY INDEX (% of variation) ADAR1
[2] = SH-SY5Y, 10 micromolar, 24 hours, read-out: ENZYME ACTIVIY INDEX (% of variation) ADAR1 + 2
[3] = SH-SY5Y, 10 micromolar, 24 hours, read-out: ENZYME ACTIVIY INDEX (% of variation) ADAR2
[4] = SH-SY5Y, 10 micromolar, 24 hours, read-out: ENZYME ACTIVIY INDEX (% of variation) ADARI
[5] = SH-SY5Y, 10 micromolar, 24 hours, read-out: ENZYME ACTIVIY INDEX (% of variation) ADARII
[6] = SH-SY5Y, 10 micromolar, 24 hours, read-out: ENZYME ACTIVIY INDEX (% of variation) NE
[7] = SH-SY5Y, 24 h, read-out: ENZYME ACTIVIY INDEX (% of variation) ADAR1
[8] = SH-SY5Y, 24 h, read-out: ENZYME ACTIVIY INDEX (% of variation) ADAR1 + 2
[9] = SH-SY5Y, 24 h, read-out: ENZYME ACTIVIY INDEX (% of variation) ADAR2
[10] = SH-SY5Y, 24 h, read-out: ENZYME ACTIVIY INDEX (% of variation) ADARI
[11] = SH-SY5Y, 24 h, read-out: ENZYME ACTIVIY INDEX (% of variation) ADARII
[12] = SH-SY5Y, 24 h, read-out: ENZYME ACTIVIY INDEX (% of variation) NE

Compound	activation at 10 µM (5-HT2cR mRNA; [1]) [%]	activation at 10 µM (5-HT2cR mRNA; [2]) [%]	activation at 10 µM (5-HT2cR mRNA; [3]) [%]	activation at 10 µM (5-HT2cR mRNA; [4]) [%]	activation at 10 µM (5-HT2cR mRNA; [5]) [%]	activation at 10 µM (5-HT2cR mRNA; [6]) [%]	% change in ADAR1a mRNA expression at 10 µM (ADAR1a mRNA) [%]	percent change in mRNA expression at 10 µM (ADAR1b mRNA) [%]	percent change in ADAR2 mRNA expression at 10 µM (ADAR2 mRNA) [%]	activation at 10 µM (5-HT2cR mRNA; [7]) [%]	activation at 10 µM (5-HT2cR mRNA; [8]) [%]	activation at 10 µM (5-HT2cR mRNA; [9]) [%]	activation at 10 µM (5-HT2cR mRNA; [10]) [%]	activation at 10 µM (5-HT2cR mRNA; [11]) [%]	activation at 10 µM (5-HT2cR mRNA; [12]) [%]	ENZYME ACTIVIY INDEX (% of variation) EC (5-HT2cR mRNA; SH-SY5Y, 10 micromolar, 24 hours)	alteration of 5-HT2cR mRNA editing compared with that observed after INFα treatment (component analysis, FIG. 4) (5-HT2cR mRNA)
CC(NC(C)(C)C)C(=O)c1cccc(Cl)c1 (stereo not drawn) [Bupropion]	-16.3	42.6	68.9	-8.9	34.7	5.3	-66	-51	-40								
NC(=O)N1c2ccccc2C=Cc2ccccc21 [Carbamazepine]	-3	38.8	26	3	36.4	-3.8	52	-62	-42								
CN(C)CCCC1(c2ccc(F)cc2)OCc2cc(C#N)ccc21 (stereo not drawn) [Citalopram]	-5.7	70.2	70.1	5.3	70.2	-7.4	-18	-2	64								
CNCCCN1c2ccccc2CCc2ccccc21 [Desipramine]							29	-38	-12	-8.6	5.7	15.5	-6.6	7.5	5.9		
NC(=O)OCC(COC(N)=O)c1ccccc1 [Felbamate]	6.3	-13.9	-24.6	2.4	-16	-1.2	-13	-1	1								
CCNC(C)Cc1cccc(C(F)(F)F)c1 (stereo not drawn) [Fenfluramine]							7	23	27	4.2	-43.3	0.7	-4.8	-34.8	4.5		
NCC1(CC(=O)O)CCCCC1 [Gabapentin]							-42	-34	-21	19.2	-28.5	-26.7	10.1	-28.1	-8.3		
Nc1nnc(-c2cccc(Cl)c2Cl)c(N)n1 [Lamotrigine]	5.9	-24.6	-23	0.1	-24.3	0.9	-26	-26	-32								
CC[C@@H](C(N)=O)N1CCCC1=O [Levetiracetam]	12	-36.6	10.9	2.8	-27.4	-3.1	-9	-11	-17								
Cc1cc2c(s1)Nc1ccccc1N=C2N1CCN(C)CC1 [Olanzapine]							-54	20	92	-23.2	84.9	9.2	-7.6	70.5	7		
NC(=O)N1c2ccccc2CC(=O)c2ccccc21 [Oxcarbazepine]	1.1	-25.6	-25.9	-3.9	-25.6	4.8	-28	-18	-15							−65.2* %	
CC(C)C[C@H](CN)CC(=O)O [Pregabalin]							-33	-43	-36	2.5	-8.7	-6.2	0.4	-8.2	-0.1		
Cc1c(C(=O)NN2CCCCC2)nn(-c2ccc(Cl)cc2Cl)c1-c1ccc(Cl)cc1 [Rimonabant]	13.3	2.4	-3.7	11.3	1.2	-10.4	-43	-32	-7								similarly altered
C[C@H](NC(=O)C(C)(C)Oc1ccc(C(F)(F)F)cn1)[C@@H](Cc1ccc(Cl)cc1)c1cccc(C#N)c1 [Taranabant]																	similarly altered
CC1(C)O[C@@H]2[C@@H](CO[C@@]3(COS(N)(=O)=O)OC(C)(C)O[C@@H]23)O1 [Topiramate]	14.4	-19.5	11.4	8	-13.5	-8	-44	-46	-60								
